Measurements reported in PMC5540273, “Progress towards a public chemogenomic set for protein kinases and a call for contributions” (PLoS ONE, 2017).

Key:
Test in all cases: KINOMEscan competition binding
[1] = target: ABL2 (Homo sapiens, UniProt P42684); conditions: read-out: %Inh ABL2
[2] = target: T1, ACVR1B (Homo sapiens, UniProt P36896); conditions: read-out: %Inh ACVR1B
T1 sequence (P36896 24-505): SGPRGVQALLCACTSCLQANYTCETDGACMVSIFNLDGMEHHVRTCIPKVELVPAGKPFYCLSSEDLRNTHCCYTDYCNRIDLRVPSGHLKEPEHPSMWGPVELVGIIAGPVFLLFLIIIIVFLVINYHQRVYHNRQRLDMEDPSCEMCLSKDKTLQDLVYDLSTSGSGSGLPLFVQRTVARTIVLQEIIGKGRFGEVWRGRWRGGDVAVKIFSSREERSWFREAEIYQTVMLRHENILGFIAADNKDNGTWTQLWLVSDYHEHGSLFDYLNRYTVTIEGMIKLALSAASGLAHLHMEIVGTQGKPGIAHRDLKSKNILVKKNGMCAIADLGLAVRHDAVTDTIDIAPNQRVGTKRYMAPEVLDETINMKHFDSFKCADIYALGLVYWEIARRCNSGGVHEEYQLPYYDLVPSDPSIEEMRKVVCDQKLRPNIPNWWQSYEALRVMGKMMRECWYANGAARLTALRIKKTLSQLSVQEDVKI

[3] = target: T2, AURKC (Homo sapiens, UniProt Q9UQB9); conditions: read-out: %Inh AURKC
T2 sequence (Q9UQB9 1-309): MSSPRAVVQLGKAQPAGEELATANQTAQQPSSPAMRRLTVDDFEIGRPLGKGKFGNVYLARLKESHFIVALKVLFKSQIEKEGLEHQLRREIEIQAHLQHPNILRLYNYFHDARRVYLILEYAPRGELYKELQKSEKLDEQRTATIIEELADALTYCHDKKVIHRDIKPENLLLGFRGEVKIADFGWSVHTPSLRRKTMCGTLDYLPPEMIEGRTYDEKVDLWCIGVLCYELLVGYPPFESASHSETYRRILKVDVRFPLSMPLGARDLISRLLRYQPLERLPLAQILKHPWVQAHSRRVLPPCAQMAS

[4] = target: BTK (Homo sapiens, UniProt Q06187); conditions: read-out: %Inh BTK
[5] = target: CAMK2D (Homo sapiens, UniProt Q13557); conditions: read-out: %Inh CAMK2D
[6] = target: CDK9 (Homo sapiens, UniProt P50750); conditions: read-out: %Inh CDK9
[7] = target: EPHA7 (Homo sapiens, UniProt Q15375); conditions: read-out: %Inh EPHA7
[8] = target: ERBB4 (Homo sapiens, UniProt Q15303); conditions: read-out: %Inh ERBB4
[9] = target: ERK4 (Homo sapiens, UniProt P31152); conditions: read-out: %Inh ERK4
[10] = target: FLT1 (Homo sapiens, UniProt P17948); conditions: read-out: %Inh FLT1
[11] = target: HIPK1 (Homo sapiens, UniProt Q86Z02); conditions: read-out: %Inh HIPK1
[12] = target: T3, LATS2 (Homo sapiens, UniProt Q9NRM7); conditions: read-out: %Inh LATS2
T3 sequence (Q9NRM7 1-1088): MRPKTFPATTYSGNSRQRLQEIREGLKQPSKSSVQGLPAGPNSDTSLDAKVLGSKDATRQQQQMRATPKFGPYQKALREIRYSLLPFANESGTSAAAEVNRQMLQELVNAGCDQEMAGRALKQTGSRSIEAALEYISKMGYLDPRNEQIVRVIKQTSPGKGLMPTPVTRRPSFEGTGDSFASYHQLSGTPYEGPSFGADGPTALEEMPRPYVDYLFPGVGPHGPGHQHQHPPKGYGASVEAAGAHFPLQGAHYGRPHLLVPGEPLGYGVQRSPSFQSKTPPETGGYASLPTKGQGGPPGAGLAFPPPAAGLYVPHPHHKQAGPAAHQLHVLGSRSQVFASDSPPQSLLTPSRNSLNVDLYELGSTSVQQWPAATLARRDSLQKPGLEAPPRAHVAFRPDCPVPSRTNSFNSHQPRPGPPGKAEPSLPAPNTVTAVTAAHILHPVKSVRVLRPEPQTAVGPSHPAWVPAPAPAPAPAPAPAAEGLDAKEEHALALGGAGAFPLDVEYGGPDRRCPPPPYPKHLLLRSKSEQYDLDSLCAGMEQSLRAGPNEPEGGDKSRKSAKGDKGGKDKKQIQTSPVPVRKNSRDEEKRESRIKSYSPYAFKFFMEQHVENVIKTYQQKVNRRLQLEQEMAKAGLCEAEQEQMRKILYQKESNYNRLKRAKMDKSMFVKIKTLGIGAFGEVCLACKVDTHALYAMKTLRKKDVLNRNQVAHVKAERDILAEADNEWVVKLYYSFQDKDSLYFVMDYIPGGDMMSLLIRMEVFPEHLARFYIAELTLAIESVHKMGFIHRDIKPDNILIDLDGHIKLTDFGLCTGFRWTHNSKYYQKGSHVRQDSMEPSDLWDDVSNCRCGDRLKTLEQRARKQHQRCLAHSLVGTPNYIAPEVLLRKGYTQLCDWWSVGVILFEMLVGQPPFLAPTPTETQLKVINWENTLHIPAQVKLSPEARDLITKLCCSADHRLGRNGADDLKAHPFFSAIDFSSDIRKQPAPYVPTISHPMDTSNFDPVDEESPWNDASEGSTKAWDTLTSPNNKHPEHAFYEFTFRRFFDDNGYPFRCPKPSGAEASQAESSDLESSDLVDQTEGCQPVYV

[13] = target: LCK (Homo sapiens, UniProt P06239); conditions: read-out: %Inh LCK
[14] = target: LYN (Homo sapiens, UniProt P07948); conditions: read-out: %Inh LYN
Sequence of LYN (P07948 whole entry): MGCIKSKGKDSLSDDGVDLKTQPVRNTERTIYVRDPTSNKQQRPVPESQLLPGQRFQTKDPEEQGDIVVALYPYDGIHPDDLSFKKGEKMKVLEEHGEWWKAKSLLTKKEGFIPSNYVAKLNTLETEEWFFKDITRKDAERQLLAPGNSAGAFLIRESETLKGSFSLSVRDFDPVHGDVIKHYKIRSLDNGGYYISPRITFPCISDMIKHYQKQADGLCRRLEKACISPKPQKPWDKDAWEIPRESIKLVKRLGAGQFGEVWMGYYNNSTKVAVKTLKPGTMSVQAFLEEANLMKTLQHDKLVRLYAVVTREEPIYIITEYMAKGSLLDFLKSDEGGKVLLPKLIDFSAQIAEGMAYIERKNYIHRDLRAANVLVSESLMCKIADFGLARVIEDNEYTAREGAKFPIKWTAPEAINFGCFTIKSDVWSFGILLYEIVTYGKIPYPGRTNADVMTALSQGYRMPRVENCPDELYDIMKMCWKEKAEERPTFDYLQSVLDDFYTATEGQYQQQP

Sequence of ERBB4 (Q15303 26-1308): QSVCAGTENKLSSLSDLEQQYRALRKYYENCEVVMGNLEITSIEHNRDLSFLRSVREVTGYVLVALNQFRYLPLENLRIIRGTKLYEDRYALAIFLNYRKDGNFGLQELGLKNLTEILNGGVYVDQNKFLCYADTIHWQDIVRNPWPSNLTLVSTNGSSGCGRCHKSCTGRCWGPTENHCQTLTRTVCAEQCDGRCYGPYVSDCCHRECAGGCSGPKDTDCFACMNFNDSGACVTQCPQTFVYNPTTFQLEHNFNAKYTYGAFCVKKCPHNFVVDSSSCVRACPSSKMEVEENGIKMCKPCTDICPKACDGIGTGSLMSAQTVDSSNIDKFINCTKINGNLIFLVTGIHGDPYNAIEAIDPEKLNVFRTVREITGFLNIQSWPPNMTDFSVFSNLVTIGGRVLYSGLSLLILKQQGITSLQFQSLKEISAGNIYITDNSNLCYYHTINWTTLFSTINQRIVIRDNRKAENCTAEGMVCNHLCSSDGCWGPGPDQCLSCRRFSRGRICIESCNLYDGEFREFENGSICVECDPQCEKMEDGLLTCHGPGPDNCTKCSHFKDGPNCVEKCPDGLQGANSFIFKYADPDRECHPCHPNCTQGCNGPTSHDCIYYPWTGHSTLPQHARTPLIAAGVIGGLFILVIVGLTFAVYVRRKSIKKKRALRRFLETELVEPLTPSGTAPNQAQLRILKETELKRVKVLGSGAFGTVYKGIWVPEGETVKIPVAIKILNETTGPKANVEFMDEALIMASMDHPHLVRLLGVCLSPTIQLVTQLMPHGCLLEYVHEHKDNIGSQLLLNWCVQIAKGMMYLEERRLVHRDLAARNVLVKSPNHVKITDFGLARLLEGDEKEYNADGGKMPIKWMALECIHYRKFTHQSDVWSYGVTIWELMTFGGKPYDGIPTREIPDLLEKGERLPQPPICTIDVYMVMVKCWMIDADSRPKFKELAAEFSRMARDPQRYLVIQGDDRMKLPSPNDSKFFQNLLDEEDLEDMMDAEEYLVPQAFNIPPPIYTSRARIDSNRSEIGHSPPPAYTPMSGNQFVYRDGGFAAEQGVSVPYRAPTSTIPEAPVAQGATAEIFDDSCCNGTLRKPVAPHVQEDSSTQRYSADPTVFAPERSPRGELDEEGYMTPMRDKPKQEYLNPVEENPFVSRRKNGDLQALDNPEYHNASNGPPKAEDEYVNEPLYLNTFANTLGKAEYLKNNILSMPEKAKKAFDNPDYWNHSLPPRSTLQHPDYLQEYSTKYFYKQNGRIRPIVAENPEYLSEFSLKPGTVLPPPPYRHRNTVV
Sequence of BTK (Q06187 whole entry): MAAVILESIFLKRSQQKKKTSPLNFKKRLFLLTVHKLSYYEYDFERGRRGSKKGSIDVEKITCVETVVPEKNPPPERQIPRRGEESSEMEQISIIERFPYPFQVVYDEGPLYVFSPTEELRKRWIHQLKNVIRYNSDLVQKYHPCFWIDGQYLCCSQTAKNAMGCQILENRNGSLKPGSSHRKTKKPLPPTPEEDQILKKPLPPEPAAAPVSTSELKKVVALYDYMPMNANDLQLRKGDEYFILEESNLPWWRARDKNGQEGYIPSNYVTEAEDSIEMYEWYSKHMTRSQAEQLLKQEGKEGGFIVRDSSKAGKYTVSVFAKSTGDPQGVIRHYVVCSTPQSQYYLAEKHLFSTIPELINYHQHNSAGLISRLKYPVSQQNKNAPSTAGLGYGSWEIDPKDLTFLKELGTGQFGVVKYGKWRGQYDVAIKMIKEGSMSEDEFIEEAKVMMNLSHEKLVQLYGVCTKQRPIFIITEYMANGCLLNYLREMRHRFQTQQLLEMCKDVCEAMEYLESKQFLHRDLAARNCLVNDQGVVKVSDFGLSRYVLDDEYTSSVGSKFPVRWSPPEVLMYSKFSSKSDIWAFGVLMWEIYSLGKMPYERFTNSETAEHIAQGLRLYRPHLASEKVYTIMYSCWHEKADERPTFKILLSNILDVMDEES
Sequence of CAMK2D (Q13557 whole entry): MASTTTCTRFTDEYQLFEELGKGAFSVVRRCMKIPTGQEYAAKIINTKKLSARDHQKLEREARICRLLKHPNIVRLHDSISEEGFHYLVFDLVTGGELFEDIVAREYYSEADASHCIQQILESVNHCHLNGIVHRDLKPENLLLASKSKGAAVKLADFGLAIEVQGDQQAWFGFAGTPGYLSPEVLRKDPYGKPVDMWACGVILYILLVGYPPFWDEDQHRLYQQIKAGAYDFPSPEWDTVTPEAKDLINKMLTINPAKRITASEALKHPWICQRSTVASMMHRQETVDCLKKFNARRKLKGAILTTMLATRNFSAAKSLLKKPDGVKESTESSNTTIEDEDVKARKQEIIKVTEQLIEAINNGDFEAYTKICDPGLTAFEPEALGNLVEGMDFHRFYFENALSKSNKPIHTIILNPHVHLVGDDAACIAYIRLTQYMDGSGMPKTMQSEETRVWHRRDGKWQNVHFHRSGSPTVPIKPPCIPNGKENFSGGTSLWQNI
Sequence of EPHA7 (Q15375 28-998): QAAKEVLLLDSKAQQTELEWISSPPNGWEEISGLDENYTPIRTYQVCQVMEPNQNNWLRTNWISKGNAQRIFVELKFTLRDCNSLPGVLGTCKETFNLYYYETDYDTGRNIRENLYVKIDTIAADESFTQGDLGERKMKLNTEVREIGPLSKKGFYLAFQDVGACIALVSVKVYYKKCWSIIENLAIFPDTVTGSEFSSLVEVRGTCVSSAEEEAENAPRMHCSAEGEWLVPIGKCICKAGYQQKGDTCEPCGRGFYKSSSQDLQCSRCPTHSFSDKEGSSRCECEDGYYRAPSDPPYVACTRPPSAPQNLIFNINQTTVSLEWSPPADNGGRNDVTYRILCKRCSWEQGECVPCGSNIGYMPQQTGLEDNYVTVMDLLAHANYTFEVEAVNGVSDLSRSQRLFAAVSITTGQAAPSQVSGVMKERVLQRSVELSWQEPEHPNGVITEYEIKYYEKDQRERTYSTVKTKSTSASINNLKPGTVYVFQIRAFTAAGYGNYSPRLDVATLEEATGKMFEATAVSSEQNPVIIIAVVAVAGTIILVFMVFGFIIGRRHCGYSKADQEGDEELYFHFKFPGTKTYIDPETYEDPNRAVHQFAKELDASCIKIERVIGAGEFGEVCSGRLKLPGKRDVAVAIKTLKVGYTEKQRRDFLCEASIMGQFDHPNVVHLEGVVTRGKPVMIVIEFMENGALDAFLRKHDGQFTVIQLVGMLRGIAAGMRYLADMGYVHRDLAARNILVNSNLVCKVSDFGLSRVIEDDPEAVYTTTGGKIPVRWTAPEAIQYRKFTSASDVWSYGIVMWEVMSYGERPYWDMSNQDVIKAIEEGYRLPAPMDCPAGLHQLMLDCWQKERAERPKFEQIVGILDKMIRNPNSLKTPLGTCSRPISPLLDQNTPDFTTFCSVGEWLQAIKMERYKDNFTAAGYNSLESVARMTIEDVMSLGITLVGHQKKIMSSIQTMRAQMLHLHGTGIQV
Sequence of LCK (P06239 whole entry): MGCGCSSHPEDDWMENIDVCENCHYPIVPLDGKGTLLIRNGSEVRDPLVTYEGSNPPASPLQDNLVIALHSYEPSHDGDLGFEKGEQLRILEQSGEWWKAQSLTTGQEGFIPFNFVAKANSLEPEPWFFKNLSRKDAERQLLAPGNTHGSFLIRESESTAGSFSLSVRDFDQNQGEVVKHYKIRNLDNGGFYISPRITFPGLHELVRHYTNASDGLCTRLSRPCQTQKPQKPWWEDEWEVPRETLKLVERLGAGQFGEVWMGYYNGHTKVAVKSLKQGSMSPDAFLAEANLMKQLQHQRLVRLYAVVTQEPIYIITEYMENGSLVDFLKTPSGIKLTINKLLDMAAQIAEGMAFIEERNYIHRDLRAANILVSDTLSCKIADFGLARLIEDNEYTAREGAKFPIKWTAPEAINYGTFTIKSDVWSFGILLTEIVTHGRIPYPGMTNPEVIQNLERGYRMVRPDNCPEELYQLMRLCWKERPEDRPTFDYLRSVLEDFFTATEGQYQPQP
Sequence of CDK9 (P50750 whole entry): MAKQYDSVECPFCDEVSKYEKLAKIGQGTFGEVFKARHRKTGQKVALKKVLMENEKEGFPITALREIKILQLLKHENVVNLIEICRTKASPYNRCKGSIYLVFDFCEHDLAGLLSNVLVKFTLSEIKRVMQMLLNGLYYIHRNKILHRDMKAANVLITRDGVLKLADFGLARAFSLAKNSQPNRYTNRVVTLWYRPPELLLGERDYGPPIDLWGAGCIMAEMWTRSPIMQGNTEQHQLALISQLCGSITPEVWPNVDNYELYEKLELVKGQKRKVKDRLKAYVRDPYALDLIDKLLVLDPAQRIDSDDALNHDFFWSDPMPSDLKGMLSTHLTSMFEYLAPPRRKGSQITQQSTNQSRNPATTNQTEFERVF

Structure (SMILES)	inhibition at 1 µM [1]	inhibition at 1 µM [2]	inhibition at 1 µM [3]	inhibition at 1 µM [4]	inhibition at 1 µM [5]	inhibition at 1 µM [6]	inhibition at 1 µM [7]	inhibition at 1 µM [8]	inhibition at 1 µM [9]	inhibition at 1 µM [10]	inhibition at 1 µM [11]	inhibition at 1 µM [12]	inhibition at 1 µM [13]	inhibition at 1 µM [14]
Cn1cc(-c2cnc(N)c3c(-c4ccc5c(c4)CCN5C(=O)Cc4ccccc4)csc23)cn1 [UNC10225012A]	81%	9%	92.2%	0%	0%	0%	6%	0%	0%	79%	21%	23%	93.8%	65%
CS(=O)(=O)Cc1ccc(Nc2nccc(-c3c(-c4cccc(NC(=O)C5CCCCC5)c4)nn4ncccc34)n2)cc1 [UNC10225159A]	5%	0%	49%	0%	0%	0%	15%	74%	3%	63%	5%	48%	23%	16%
Cc1ccc(NC(=O)Nc2cccc(C(F)(F)F)c2)cc1 [UNC10225187A]	3%	85%	19%	0%	8%	0%	2%	0%	0%	23%	8%	20%	6%	0%
COc1cccc(OC)c1C(=O)Nc1cccc(-c2nn3ccccc3c2-c2ccnc(Nc3cccc(F)c3)n2)c1 [UNC10225310A]	100%	15%	70%	0%	0%	0%	14%	84%	9%	32%	31%	10%	24%	8%
O=c1cc(N2CCOCC2)nc2n(Cc3cccc(Cl)c3Cl)c(C3CC3)nn12 [UNC10225469A]	5%	0%	0%	0%	18%	0%	0%	0%	0%	6%	16%	27%	23%	0%
